Data: patent publication US20060052457A1, “Use of ppar alpha agonists for the treatment of vascular and renal diseases” (priority 2002, published 2006)
Entries after “also recorded” stand apart in the source; their conditions may differ.

What was measured:
[1] = system: smooth muscle cells; assay: DNA synthesis by smooth muscle cells with PPAR-gamma agonists (FIG. 13); format: cell-based
[2] = system: Porcine coronary arteries; assay: Organ culture model of restenosis (balloon angioplasty ex vivo, neointimal index); format: cell-based; settings: 250 μM continuous, 14 days in culture after balloon angioplasty ex vivo
Method: Porcine coronary arteries were subjected to balloon angioplasty ex vivo and placed into culture for 14 days. Treatment with WY-14643 (250 μM) was continuous over the entire time period. Subsequently, the vessel segments were sectioned and morphometry was employed to quantify the extent of restenosis. The neointimal index is defined as: neointimal area/medial area. The data are presented as means±s.e. (n=8). Control=no balloon angioplasty.

[3] = system: human proximal tubule cells; assay: Growth (cell number, Coulter counter) of human proximal tubule cells; format: cell-based
Method: Human proximal tubule cells were purchased from Clonetics and propagated in 24-well culture dishes with Renal Epithelial Cell Basal medium (REBM) containing 0.5% fetal bovine serum (FBS). Treatments were added once the cells reached 40% confluence. Incubation was continued for 4 days, at which time the cells were detached by trypsinization and cell number measured with a Coulter counter. All comparisons are relative to a cell population treated with 5 μg/ml aphidicolin, a non-toxic inhibitor of cell proliferation. The data are presented as means+/−s.e. (n=6).

[4] = system: human saphenous vein SMCs; assay: [3H]thymidine incorporation (DNA synthesis) after PDGF stimulation, human saphenous vein SMCs; format: cell-based; settings: PDGF 0.1 μg, 72 h
Method: (§1) SMCs were prepared by explant culture as previously described, grown in 24-well culture dishes to 70% confluence and then placed into serum-free DMEM supplemented with insulin, ascorbate, pyruvate and selenium for 5 days. These conditions result in the cessation of cell growth, and markers of the contractile state are expressed. The cells were subsequently treated with PDGF (0.1 μg) in the presence or absence of WY-14643, and 2 μCi/mL [^3H]thymidine were added to the culture medium 24 hours later. Seventy-two hours following PDGF treatment, incorporation of thymidine into trichloroacetate-precipitable material was measured. The data, which is presented as means±s.e. (n=3), are shown for porcine SMCs (panel A), human saphenous vein SMCs (panel B) and human internal mammary artery SMCs (panel C).

[5] = system: A10 smooth muscle cells; assay: [3H]thymidine incorporation (DNA synthesis) by A10 smooth muscle cells after PDGF or IGF-1; format: cell-based, rat; settings: A10 SMCs, 72 h
Method: […] were cultured and quiescent cells were prepared in 24-well culture dishes as described in the legend for FIG. 2. The cells were treated with PDGF (0.1 μg) or IGF-1 (0.1 μM) in the presence or absence of WY-14643, and 2 μCi/mL [^3H]thymidine were added to the medium concurrent with the mitogens. Seventy-two hours following treatment, the cells were lysed and thymidine incorporation was measured as described above. […] (n=3), for A10 cells treated with PDGF (panel A) and IGF-1 (panel B).

[6] = system: H4IIE hepatoma cells; assay: [3H]thymidine incorporation (DNA synthesis) by H4IIE hepatoma cells after IGF-1; format: cell-based; settings: IGF-1 0.1 μM, 72 h
Method: H4IIE hepatoma cells were cultured and quiescent cells were prepared in 24-well culture dishes by placing the cells into serum-free α-MEM for 3 days. The cells were treated with IGF-1 (0.1 μM) in the presence or absence of WY-14643, and 2 μCi/mL [^3H]thymidine were added concurrent with the treatment. Seventy-two hours following treatment, the cells were lysed and thymidine incorporation was measured as described above. The data are presented as means+/−s.e. (n=3).

[7] = system: porcine coronary artery smooth muscle cells; assay: [3H]thymidine incorporation (DNA synthesis) after PDGF stimulation, porcine coronary artery SMCs; format: cell-based; settings: PDGF 0.1 μg, 72 h
Method: as §1, with “C). All values have been normalized relative to the incorporation in unstimulated quiescent cells (control=100).” for “C).”
Quiescent SMCs were treated with PDGF (01. μg/ml) in the presence and absence of PGJ2, and incorporation of thymidine was measured as previously described. The data are presented as means±s.e. (n=3).
Quiescent SMCs were treated with PDGF (0.1 μg) in the presence or absence of clofibrate, and incorporation of thymidine was measured as previously described. The data are presented as means±s.e. (n=3).

[8] = system: human internal mammary artery SMCs; assay: [3H]thymidine incorporation (DNA synthesis) after PDGF stimulation, human internal mammary artery SMCs; format: cell-based; settings: PDGF 0.1 μg, 72 h
Method: as §1

[9] = system: porcine coronary artery smooth muscle cells; assay: Basal DNA synthesis without mitogenic stimulation, quiescent porcine coronary artery SMCs; format: cell-based; settings: for basal DNA synthesis in the absence of mitogenic stimulation: quiescent porcine coronary artery SMCs
Method: (§2) Quiescent SMCs (panel A) and H4IIE cells (panel B) were treated with PGJ2 and incorporation of thymidine was measured as previously described. Quiescent SMCs were also treated with WY-14643 (panel C) and incorporation of thymidine was measured. The data are presented as means±s.e. (n=3).

[10] = system: H4IIE hepatoma cells; assay: Basal DNA synthesis without mitogenic stimulation, quiescent H4IIE hepatoma cells; format: cell-based
Method: as §2

Structure (SMILES) | inhibition of DNA synthesis by smooth muscle cells [1] | neointimal proliferation / restenosis (neointimal index) [2] | growth of human proximal tubule cells (cell number) ([3]; 4 days incubation, relative to aphidicolin 5 μg/ml) | apparent toxicity in primary human renal proximal tubule cells ([3]; primary cultures) | DNA synthesis (thymidine incorporation) in response to PDGF stimulation [4] | DNA synthesis in response to IGF-1 stimulation ([5]; IGF-1 0.1 μM) | DNA synthesis in response to PDGF stimulation ([5]; PDGF 0.1 μg) | DNA synthesis in response to stimulation by IGF-1 [6] | DNA synthesis (thymidine incorporation) in response to PDGF stimulation [7] | DNA synthesis (thymidine incorporation) in response to PDGF stimulation [8] | basal DNA synthesis in the absence of mitogenic stimulation [9] | apparent toxicity / cytotoxicity (FIG. 9) ([9]; stated with reference to FIG. 9) | basal DNA synthesis in the absence of mitogenic stimulation [10]
CCc1ccc(CCOc2ccc(CC3SC(=O)NC3=O)cc2)nc1 (stereo not drawn) [piaglitazone] | are not |  |  |  |  |  |  |  |  |  |  |  | 
Cc1cccc(Nc2cc(Cl)nc(SCC(=O)O)n2)c1C [WY-14643] |  | inhibits neointimal proliferation; also recorded: prevent restenosis | prevented cell growth; also recorded: effectively inhibits the growth | without apparent toxicity | inhibited DNA synthesis | does not inhibit DNA synthesis; also recorded: could not inhibit the growth | does not inhibit DNA synthesis; also recorded: could not inhibit the growth | inhibits DNA synthesis; also recorded: prevented cell growth | inhibited DNA synthesis; also recorded: can inhibit smooth muscle cell proliferation | inhibited DNA synthesis | has no effect | without apparent toxicity | 
CCCCC[C@H](O)/C=C/[C@H]1C(=O)C=C[C@@H]1C/C=C\CCCC(=O)O [PGJ2] |  |  |  |  |  |  |  |  | inhibits DNA synthesis; also recorded: is inhibitory |  | inhibits basal DNA synthesis |  | inhibits basal DNA synthesis
